Patent US20110086429A1, “METHODS AND DEVICES FOR DETECTING OZONE AND CARBONYL-CONTAINING COMPOUNDS” (SIGMA-ALDRICH CO., priority 2007, published 2011)
≈ marks a conversion by molar mass, not a printed value.

Test: Solubility in acetonitrile, DMSO and their mixtures
Format: physicochemical

solubility (organic solvent or mixture, acetonitrile, FIG. 3 at 25° C.) [µM] | Structure (SMILES) | solubility in DMSO (in words) (DMSO) | solubility in acetonitrile (in words) (acetonitrile)
 | O=[N+]([O-])c1ccc(NN=Cc2ccncc2)c([N+](=O)[O-])c1 [pyridine-4-aldehyde 2,4-DNPhydrazone, pyridine-4-aldehyde 2,4-dinitrophenylhydrazone] | relatively high concentration | poor solubility
~790 (≈ 84.6 µg/mL) | O=Cc1ccncc1 [pyridine-4-aldehyde] |  | 
